Columns and labels:
MAP kinase p38 = MAP kinase p38 (Homo sapiens, UniProt O15264+Q15759+Q16539+P53778); test: Inhibition of Mitogen-activated protein kinase p38; type: protein assay
[1] = target: Cyclin-dependent kinase 2 (Homo sapiens, UniProt P24941); test: Inhibition of Cyclin-dependent kinase 2

IC50 (MAP kinase p38): 6.3 µM | IC50 [1]: 250 µM
SMILES: COc1cc2ncnc(Nc3cccc(Br)c3)c2cc1OC

Source: ChEMBL document CHEMBL1133170, “Binding mode of the 4-anilinoquinazoline class of protein kinase inhibitor: X-ray crystallographic studies of 4-anilinoquinazolines bound to cyclin-dependent kinase 2 and p38 kinase” (J Med Chem, 2000)
